Source: patent US11622951B2, “Alpha-aminoadipate for treatment of vision loss and restoring sight” (The Schepens Eye Research Institute, Inc., priority 2013, dated 2023)

What was measured:
[1] = tested on: grafted retinal progenitor cells; assay: Integration of grafted EGFP+ retinal progenitor cells into pretreated wild-type host retina; format: in vivo, mouse
Description: (§1) Mice were anesthetized by intraperitoneal injection of ketamine (62.5 mg/kg) and xylazine (12.5 mg/kg) and transcardially perfused with phosphate buffered saline (PBS) followed by 4% paraformaldehyde in PBS. Retinal flat-mounts or transverse retinal sections (14 μm) were preblocked with PBS containing 3% bovine serum albumin (Sigma-Aldrich, St. Louis, Mo.) and 0.3% Triton X (Sigma-Aldrich) and incubated, first, with primary antibody overnight, and then with secondary antibody for 1 hour at room temperature. The following antibodies were used: Cy3-conjugated monoclonal antibody against GFAP (1:1000; Sigma), Brn-3b (1:200; Santa Cruz Biotechnology; Santa Cruz, Calif.), mouse anti-rhodopsin (1:4000; Rho1D4), chick anti-cone-opsin (1:300), and Cy-2, Cy-3 or Cy-5-conjugated secondary antibody (Jackson ImmunoResearch; West Grove, Pa.). Assessment of morphological integration were quantified by counting EGFP+ cells located outside of transplanted cell clusters in retinal whole-mounts. Statistical significance was determined by either the two tailed student t test or ANOVA.
At 2 days before transplantation, 2 μl of a solution containing either α-AA (1 μg/μl) or saline (control) was injected unilaterally into the subretinal space of recipient wild-type or Gnat1^−/− mice (>2 months old). The procedure for donor cell preparation was essentially as described by Kinouchi et al, 2003, Nat Neurosci, 6:863-868. Briefly, retinal progenitor cells were isolated from postnatal day 0 (P0) EGFP transgenic mice. […]
If transient disruption of retinal glia with α-AA promotes morphological integration of grafted retinal progenitors in vivo was next investigated. […] Thus, in the following studies, cell transplantation was performed at day 2 after α-AA pretreatment when temporal disruption of residential glial structure by α-AA was detected that effectively ameliorates the host barrier to cell integration and promotes grafted cell migration into the host retina.

retinal ganglion cells = assay: Cell-attached patch clamp of retinal ganglion cells from Rho-/- mice; parameters: species or system mouse; conditions: retinas extracted from treated eyes of Rho-/- mice, cells responding/recorded
Description: Mice carrying rhodopsin deficiency (Rho^−/−) were used to determine if injection of alpha-aminoadipate (αAA) is sufficient to induce neuroregeneration from endogenous retinal progenitors, e.g., Muller cells, leading to preservation and restoration of photoreceptor cell function. Light-evoked photoreceptor responses and retinal functions in Rho^−/− mice that received αAA or saline injection were assessed using ERGS and whole cell-attached patch clamp. […] Consistent with the presence of ERG b-waves in αAA-treated eye, light-elicited spiking responses in some of the ganglion cells were observed (n=4/9) (FIG. 15 A, B). Similar to findings from other types of retinal degenerative mice, an elevated level of background firing in these cells, likely due to the changes in the excitability of the presynaptic network formed by bipolar cells and amacrine cells, were also observed. In contrast, no light-elicited responses in ganglion cells were recorded from the saline-injected eyes (n=4/4, FIG. 14C). […] Additional vision and optomotor tests known in the art are conducted to assess vision restoration, such as the water maze test. Thus, a single intraocular injection of αAA may be sufficient to improve vision, in part by increasing the number of cones.

[2] = tested on: transplanted retinal progenitors; assay: Differentiation of transplanted retinal progenitors in pretreated host retina (immunohistochemistry); format: in vivo, mouse; conditions: pretreated wild-type hosts, 21 days post transplantation
Description: as §1
At 2 days before transplantation, 2 μl of a solution containing either α-AA (1 μg/μl) or saline (control) was injected unilaterally into the subretinal space of recipient wild-type or Gnat1^−/− mice (>2 months old). […]

GFAP = assay: Western blot of GFAP expression in injected retinas; format: in vivo, mouse
Description: To determine the effect of α-AA on retinal glial cells, mouse retinas were dissected and homogenized in lysis buffer 3% sodium dodecyl sulfate (Sigma-Aldrich), 0.3 M sucrose (Sigma-Aldrich), 1 mM orthovanadium (Sigma-Aldrich)]. Protein concentrations were determined with a BCA assay (Pierce; Rockford, Ill.). Protein (20 μg) was loaded on a 10% sodium dodecyl sulfate-polyacrylamide gel and transferred to a nitrocellulose membrane. The blot was blocked in 1% bovine serum albumin (Sigma-Aldrich) and 4% dry milk in PBS and probed with primary antibodies against GFAP (1:1000; Chemicon; Temecula, Calif.) and β-actin (Sigma-Aldrich) as loading controls. After incubation with appropriate secondary antibodies conjugated to horseradish peroxidase (Jackson Immunochemicals; West Grove, Pa.), detection was performed with Super Signal West Pico (Pierce). Retinal astrocytes and Müller glia are central to the homeostatic and metabolic support of retinal neurons; whereas, after injury these cells develop glial scar that forms critical barriers to neuron regeneration and integration by retinal progenitor cells. […] Retinal glial morphology was examined by immunolabeling for glial marker GFAP and assessed the level of GFAP expression by Western blot at day 1-7 post injection. Expression of GFAP is widely detected in the normal mouse retinas (FIG. 1a).

SMILES: NC(CCCC(=O)O)C(=O)O (stereo not drawn) [α-AA, alpha-aminoadipate]
- number of cells repopulated the host retina ([1]; transplantation performed after day 5 post treatment): drastically diminished
- increase in number of engrafted cells bearing long neurites (>3 body length) ([1]; wild-type hosts, three weeks post transplantation, vs saline-treated or untreated retinas): 7-11 fold
- increase in the number of EGFP+ cells repopulated into the host retina ([1]; wild-type hosts, transplantation day 2 after pretreatment, three weeks post transplantation, vs saline-treated or untreated retinas): 3-5 fold
- ganglion cells with light-elicited spiking responses (retinal ganglion cells): 4/9
- EGFP+ cells integrated into the ONL cone-opsin positive [2]: 12%
- EGFP+ cells integrated into the ONL positive for rhodopsin [2]: Approximately 80%
- GFAP expression, Western blot quantification (GFAP; by day 7 post injection): returned to a control level
- GFAP expression, Western blot quantification (GFAP; day 3 post injection, vs normal or saline-injected controls): significant downregulation
